Source: ChEMBL document CHEMBL1126450, “Semisynthetic modification of hygromycin A. 3. synthesis and antibacterial activity of aminocyclitol analogs” (1992)
≈ marks a conversion by molar mass, not a printed value.

How the values were obtained:
Pasteurella multocida = experiment: The minimum inhibitory concentration (MIC) of the cyclohexylamide analogs against Pasteurella multocida; format: functional
[1] = system: Brachyspira hyodysenteriae; experiment: The minimum inhibitory concentration (MIC) of the cyclohexylamide analogs against Serpulina hyodysenteriae; format: functional

Row | Structure (SMILES) | MIC (Pasteurella multocida) | MIC [1]
1 | CO[C@@H]1[C@H](O)[C@@H](O)[C@@H](NC(=O)/C(C)=C\c2ccc(O[C@@H]3O[C@H](C(C)=O)[C@@H](O)[C@@H]3O)c(O)c2)[C@@H](O)[C@@H]1OC | > 400 µg/mL | 100 µg/mL (≈ 190 µM)
2 | CO[C@@H]1[C@@H](O)[C@H]2OCO[C@H]2[C@H](O)[C@@H]1NC(=O)/C(C)=C\c1ccc(O[C@@H]2O[C@H](C(C)=O)[C@@H](O)[C@@H]2O)c(O)c1 | 12.5 µg/mL (≈ 23.8 µM) | 3.13 µg/mL (≈ 5.96 µM)
3 | CC(=O)[C@H]1O[C@@H](Oc2ccc(/C=C(\C)C(=O)N[C@H]3C4OC(C5OCOC54)[C@H]3O)cc2O)[C@@H](O)[C@@H]1O (some centres undefined) | > 200 µg/mL | > 200 µg/mL
4 | CO[C@@H]1[C@@H](O)[C@@H](NC(=O)/C(C)=C\c2ccc(O[C@@H]3O[C@H](C(C)=O)[C@@H](O)[C@@H]3O)c(O)c2)[C@@H](O)[C@@H]2OCO[C@H]12 | 100 µg/mL (≈ 190 µM) | 25 µg/mL (≈ 47.6 µM)
5 | CC(=O)[C@H]1O[C@@H](Oc2ccc(/C=C(/C)C(=O)N[C@H]3[C@@H](O)[C@@H]4OCO[C@@H]4[C@H](O)[C@@H]3O)cc2O)[C@@H](O)[C@@H]1O | 12.5 µg/mL (≈ 24.4 µM) | 3.13 µg/mL (≈ 6.12 µM)
6 | CO[C@@H]1[C@H](NC(=O)/C(C)=C\c2ccc(O[C@@H]3O[C@H](C(C)=O)[C@@H](O)[C@@H]3O)c(O)c2)[C@H](O)[C@@H](O)[C@H]2OCO[C@H]21 | 12.5 µg/mL (≈ 23.8 µM) | 6.25 µg/mL (≈ 11.9 µM)
7 | CC(=O)[C@H]1O[C@@H](Oc2ccc(/C=C(\C)C(=O)N[C@@H]3[C@H](O)[C@@H](O)[C@H]4OCO[C@H]4[C@@H]3O)cc2O)[C@@H](O)[C@@H]1O [HYGROMYCIN A] | 1.56 µg/mL (≈ 3.05 µM) | 1.56 µg/mL (≈ 3.05 µM)
